Consider one compound from PMC7177633, “Effective Cellular Transport of Ortho-Halogenated Sulfonamide Derivatives of Metformin Is Related to Improved Antiproliferative Activity and Apoptosis Induction in MCF-7 Cells” (International Journal of Molecular Sciences, 2020).

In data set [1] the test system is OCTs. Briefly: Inhibition of [14C]choline uptake in MCF-7 cells (competitive inhibition assay). Type of data set: cell-based, human. The note with it: 2400 μmol/L. As to the method: (§1) The following day, after removal of the culture medium, the cells were carefully washed with prewarmed HBSS (Hanks’ balanced salt solution) containing 125 mM NaCl, 4.8 mM KCl, 1.2 mM MgSO4, 1.2 mM KH2PO4, 1.3 mM CaCl2, 5.6 mM glucose and 25 mM HEPES (pH 7.4). […] Then, the cells were washed three times with ice-cold HBSS (500 μL) and were lysed with 250 μL of 0.1-M NaOH in the ice bath, and the lysate was mixed with 1.0 mL of an emulsifier safe cocktail (PerkinElmer, Waltham, MA, USA). The radioactivity was measured by liquid scintillation counting (MicroBeta^2 counter, PerkinElmer, Waltham, MA, USA). The studies were carried out with the use of at least three replicates from the same cell passage.

The test system of data set [2] is OCTs. Description: Inhibition of [14C]choline uptake in MDA-MB-231 cells (competitive inhibition assay). Type of data set: cell-based, human. The note with it: 2400 μmol/L. The method, then: as §1
The test system of data set [3] is MCF-7 cells. Particulars: metformin, cited from earlier work.
Data set [4] deals with MDA-MB-231 cells. Particulars: metformin, cited from earlier work.
The test system of data set [5] is MCF-7 cells. More on the design: method as in PMID 30913467. Particulars: up to 3000 µmol/L; cited from earlier work.
Data set [6] deals with MDA-MB-231 cells. More on the design: method as in PMID 30913467. The note with it: up to 3000 µmol/L; cited from earlier work.
For another data set, the system named is OCT3-BT20 cells. On the set-up: method as in PMID 26669511. Particulars: OCT3-overexpressing BT-20 vs BT-20; cited from earlier work.
Setting [7] is: reported previously, ref Markowicz-Piasecka et al., 2019.

With `CN(C)C(=N)N=C(N)N` [Metformin], the results for the “maximal inhibition of [14C] choline uptake” value in the data set with OCTs [1] and with OCTs [2] were 34.3% and 29.9%, respectively. Moreover, the “Vmax MCF-7 (Michaelis Menten curves)” value in the data set on MCF-7 cells [3] (setting [7]) is recorded as 0.801 ± 0.296 nmol/min/mg. In addition, the Km (usually the concentration of substrate that gives half-maximal velocity) in the data set with MCF-7 cells [3] (reported previously, ref Markowicz-Piasecka et al., 2019, read-out: Km MCF-7 (Michaelis Menten curves)) was 5.58 ± 1.56 mM; in the data set with MDA-MB-231 cells [4] (reported previously, ref Markowicz-Piasecka et al., 2019, read-out: Km MDA-231 cells (Michaelis Menten curves)) it was 3.38 ± 0.952 mM. Also, the “uptake into MCF-7 cells” value with MCF-7 cells [3] is listed as 0.107 ± 0.006 nmol/min/mg of proteins. In addition, in the data set with MDA-MB-231 cells [4] (setting [7]), the “Vmax MDA-231 cells (Michaelis Menten curves)” value is recorded as 0.718 ± 0.181 nmol/min/mg. The “uptake into MDA-MB-231 cells” value in the data set with MDA-MB-231 cells [4] is reported as 0.117 ± 0.010 nmol/min/mg of proteins. Besides, the “effect on MCF-7 growth” value in the data set on MCF-7 cells [5] is listed as “did not significantly affect”. The “effect on MDA-MB-231 growth” value in the data set on MDA-MB-231 cells [6] is “did not significantly affect”. In addition, in the data set on OCT3-BT20 cells, the “metformin uptake in OCT3-BT20 cells relative to BT-20 cells” value was “more than 13 fold”.
